Assay results published in patent publication US5609872A, “Peptides comprising a protective epitope from blood stages of plasmodium falciparum” (priority 1990, dated 1997).
Ends that are not written are not given here.

tested on: mAb 33G2; test: PEPSCAN ELISA of rod-bound peptides with mAb 33G2; type: binding, human; details: culture supernatant with mAb 33G2 (approx. 10 μg/ml) diluted 1:100; N-acetylated peptides on rods
Procedure: The detailed epitope specificity on the single amino acid level for the mAb 33G2 was performed using the multiple peptide synthesis technique (PEPSCAN) developed by Geysen et al. (J. Immunol. Methods 102, 259-274, 1987). Peptides were synthesized on polyethylene rods on which polymers of polyacrylic acid had been formed by […]. Polyethylene rods and Pmoc L-amino acids performed as active esthers (Cambridge Research Biochemicals, UK) were used for synthesis according to instructions of the manufacturer. The N-terminals of all peptides were acetylated. As a basis for the mAb 33G2 epitope analysis, the sequence of amino acid residues 1-19 [SEQ ID NO.: 15] (ESVTEEIAEEDKSVIEEAV) of Ag332 (Mattei, D., Berzins, K., Wahlgren, M., Udomsangpetch, R., Perlmann, P., Griesser, H. W., Scherf, A., M uller-Hill, B., Bonnefoy, S., Guillotte, M., Langsley, G., Pereira da Silva, L. and Mercereau-Puijalon, O. (1989) Cross-reactive antigenic determinants present on different Plasmodium falciparum blood-stage antigens. Parasite Immunol. 11, 15-30) was used, containing sequences of the peptides with the highest reactivity with the mAb (Udomsangpetch, R., Carlsson, J., W ahlin, B., Holmquist, G., Ozaki, L. S., Scherf, A., Mattei, D., Mercereau-Puijalon, O., Uni, S., Aikawa, M., Berzins, K. and Perlmann, P. (1989) Reactivity of the human monoclonal antibody 33G2 with repeated sequences of three distinct Plasmodium falciparum antigens. J. Immunol. 142, 3620-3626). All possible overlapping heptapeptides, hexpeptides, pentapeptides and tetrapeptides covering the mentioned sequence were synthesized and their reactivity with mAb 33G2 was analysed by ELISA as described by Geysen et al. (J. Immunol. Methods 102, 259-274, 1987). Culture supernatant containing mAb 33G2 (approx. 10 μg/ml), was diluted 1:100. Peptide containing rods were washed in phosphate-buffered saline with 0.05% Tween 20 between all steps in ELISA. Bound antibodies were detected with a rabbit antihuman IgM-alkaline phosphatase conjugate (Sigma, St. Louis, Mo.) using p-nitrophenyl phosphate, disodium salt (Sigma) as substrate.

Row | Substance | reactivity with mAb 33G2 in ELISA (absorbance at 405 nm), in words
1 | ESVTEEI [glu-ser-val-thr-glu-glu-ile, heptapeptide, amino acids 1-7 of Ag332] | showed reactivity
2 | IADEV: pentapeptide epitope analog of residue 3-7 of Ag332 | recognized
3 | LVEEV: pentapeptide epitope analog of residue 3-7 of Ag332 | recognized
4 | SVTEEIA [ser-val-thr-glu-glu-ile-ala, heptapeptide, amino acids 2-8 of Ag332] | showed reactivity
5 | TEEIAEE [thr-glu-glu-ile-ala-glu-glu, heptapeptide, amino acids 4-10 of Ag332] | showed reactivity
6 | VTEEIAE [val-thr-glu-glu-ile-ala-glu, heptapeptide, amino acids 3-9 of Ag332] | showed reactivity
7 | VVEEV: pentapeptide epitope analog of residue 3-7 of Ag332; printed as SEQ ID NO.:19 (LVEEV) | recognized
8 | YLDEV: pentapeptide epitope analog of residue 3-7 of Ag332 | did not react
9 | ile-ala-asp-glu-ile (IADEI) | recognized
10 | ile-thr-glu-glu-ile (ITEEI) | recognized
11 | ser-val-thr-glu-glu-ile (SVTEEI) [hexapeptide, amino acids 2-7 of Ag332] | recognized
12 | thr-glu-glu-ile-ala-glu (TEEIAE) [hexapeptide, amino acids 4-9 of Ag332] | recognized
13 | val-ala-glu-glu-ile (VAEEI) | recognized
14 | val-thr-glu-glu-ile-ala (VTEEIA) [hexapeptide, amino acids 3-8 of Ag332] | recognized

tested on: binding of mAb 33G2 to Pf11/RESA; test: not given; details: peptide mixed with a fixed concentration of the mAb; up to 200 μg/ml tested; cited from earlier work

Row | Substance | peptide concentration giving complete inhibition of mAb 33G2 immunofluorescence [µg/mL]
15 | (EEVVEEVVP)2: synthetic peptide corresponding to repeated sequence in antigen Pf11.1 (also: dimer of the repeat (EEVVEEVVP)2) | 100
16 | Y (SVTEEIAEEDK)2: peptide corresponding to a dimer of amino acids 2-12 in antigen Ag332 (YSVTEEIAEEDK; also: dimer of the peptide) | 0.2
